Test results as given in US9562272B2, “Screening method for therapeutic agent for chondropathy and modified chondrocyte for treatment of chondropathy” (KYOTO UNIVERSITY, priority 2011, dated 2017).

Target: T1, SIK3 (Homo sapiens, UniProt Q9Y2K2)
T1 construct: expressed in transfected cells; host or cells: HEK293
Experiment: GAL4-Luc/TORC2 dual-luciferase reporter screening system for SIK3 activity in HEK293 cells
Assay type: cell-based
Details: HEK293 cells transfected with pM-TORC2 and pTarget-SIK3; test substance added 24 h later, treated for 6 hours; DMSO control
Experimental: Into HEK293 cells, a reporter vector GAL4-Luc (firefly luciferase: pTAL-5XGAL4 (150 ng)), an endogenous reporter vector (Renilla luciferase: pRL-Int (−) (30 ng)), a vector with or without the expression of TORC (pM-TORC2 or pM only (50 ng)) and a vector with or without the expression of SIK3 (pTarget-SIK3 or pTarget only (50 ng)) were introduced using Lipofectamine 2000. Twenty-four hours later, a test substance was added and the cells were further treated for 6 hours. The measurement of the reporter activity was performed using Dual-Luciferase assay kit made by Promega. As the test substance, staurosporine (STS) or a SIK2 inhibitor (Compound C) was used. As a control, DMSO alone was added.
In FIG. 7, the vertical axis represents the activity of TORC2, which is the activity of pM-TORC2 that was calculated by dividing the firefly luciferase activity by the Renilla luciferase activity and is expressed as a multiple of the activity of pM. The white bars and the black bars represent the activities of TORC2 with the absence and presence of SIK3, respectively. […] As is apparent from FIG. 7, the inhibiting activity of staurosporine (STS) on SIK3 was detected.

T1 sequence (Q9Y2K2 whole entry): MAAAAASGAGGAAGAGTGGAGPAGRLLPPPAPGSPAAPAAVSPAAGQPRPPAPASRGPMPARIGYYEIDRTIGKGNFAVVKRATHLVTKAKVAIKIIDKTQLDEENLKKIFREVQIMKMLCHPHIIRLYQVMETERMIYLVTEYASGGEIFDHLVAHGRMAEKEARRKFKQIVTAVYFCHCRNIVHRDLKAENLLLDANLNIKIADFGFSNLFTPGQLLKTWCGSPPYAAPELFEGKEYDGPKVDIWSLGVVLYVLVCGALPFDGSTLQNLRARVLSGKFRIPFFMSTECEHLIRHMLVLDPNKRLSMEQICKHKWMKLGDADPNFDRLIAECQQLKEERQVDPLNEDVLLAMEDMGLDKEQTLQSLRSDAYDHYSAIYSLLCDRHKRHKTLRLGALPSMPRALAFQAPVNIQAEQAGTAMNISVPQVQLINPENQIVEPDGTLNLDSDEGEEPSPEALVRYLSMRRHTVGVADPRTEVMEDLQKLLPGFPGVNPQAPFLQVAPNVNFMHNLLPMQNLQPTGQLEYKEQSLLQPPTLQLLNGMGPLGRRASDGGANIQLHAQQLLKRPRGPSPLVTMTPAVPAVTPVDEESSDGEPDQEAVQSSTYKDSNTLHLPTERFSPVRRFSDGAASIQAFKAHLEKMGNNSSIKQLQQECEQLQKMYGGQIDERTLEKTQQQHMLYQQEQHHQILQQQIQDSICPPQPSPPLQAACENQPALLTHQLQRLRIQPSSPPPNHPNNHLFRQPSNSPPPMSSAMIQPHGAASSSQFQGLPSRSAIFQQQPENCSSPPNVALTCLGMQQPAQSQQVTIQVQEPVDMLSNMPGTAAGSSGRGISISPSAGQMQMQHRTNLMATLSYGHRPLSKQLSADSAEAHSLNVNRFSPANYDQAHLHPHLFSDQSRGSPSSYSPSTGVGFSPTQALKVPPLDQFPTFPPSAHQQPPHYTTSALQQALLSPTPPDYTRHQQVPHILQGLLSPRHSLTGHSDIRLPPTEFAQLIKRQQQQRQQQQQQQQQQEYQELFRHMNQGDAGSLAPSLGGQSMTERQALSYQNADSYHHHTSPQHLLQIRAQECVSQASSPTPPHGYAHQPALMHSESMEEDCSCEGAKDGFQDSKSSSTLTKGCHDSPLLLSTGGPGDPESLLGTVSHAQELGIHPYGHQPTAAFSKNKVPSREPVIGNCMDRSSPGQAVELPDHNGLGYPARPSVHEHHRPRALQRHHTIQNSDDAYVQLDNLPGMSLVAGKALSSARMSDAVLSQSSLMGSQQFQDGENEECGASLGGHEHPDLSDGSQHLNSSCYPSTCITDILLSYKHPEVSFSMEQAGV

## CN[C@@H]1C[C@H]2O[C@@](C)([C@@H]1OC)n1c3ccccc3c3c4c(c5c6ccccc6n2c5c31)C(=O)NC4 [staurosporine]
  inhibiting activity on SIK3 (activity of TORC2 with absence vs presence of SIK3): detected
